{"source": "ChEMBL document CHEMBL1681773", "about": "“Toxic polyketides produced by Fusarium sp., an endophytic fungus isolated from Melia azedarach” (Bioorg Med Chem Lett, 2011)"}
{"test": "Toxicity in brine shrimps larvae assessed as mortality at 10 ug/ml after 24 hrs", "format": "organism-based", "settings": "artemia, brine shrimp larvae; read-out: Activity", "units": {"mortality at 24 h, 10 ug/ml": "%"}}
{"molecule": "C[C@H]1C/C=C/[C@@H](O)[C@@H](O)CC/C=C/c2cc(O)cc(O)c2C(=O)O1", "note": "[AIGIALOMYCIN D]", "mortality at 24 h, 10 ug/ml": 76.7}
{"molecule": "C[C@H](O)C/C=C/CCCCc1cc2cc(O)cc(O)c2c(=O)o1", "note": "[FUSARIUMIN]", "mortality at 24 h, 10 ug/ml": 78.2}
{"molecule": "C[C@@H]1C[C@@H](O)/C=C\\[C@H](O)CCC(=O)Cc2c(Cl)c(O)cc(O)c2C(=O)O1", "note": "[POCHONIN N]", "mortality at 24 h, 10 ug/ml": 82.8}
